pEC50, pIC50: −log10 of the molar value. Entries after “also recorded” stand apart in the source; their conditions may differ. Read-outs that look alike come from different tables or passages of the source. Where only a bound is given, the exact number is not on record here.

The test system of assay [1] is EBOV. The assay is described as follows: microbe, parasite or virus in culture. The assay is classed as cell-based, Ebola virus.
Assay [2] deals with EBOV. The conditions noted are these: cited from earlier work.
The subject of assay [3] is EBOV. The conditions noted are these: read-out: IC50 for the inhibition of virus entry in cells; cited from earlier work.
The subject of assay [4] is EBOV. The following applies: cited from earlier work. This is another data set of the same source.

Regarding `Nc1nc2c(ncn2COCCO)c(=O)[nH]1` [Acyclovir], the “EBOV activity (in words)” value in the assay with EBOV [1] is “lacked an activity”.

In general, pIC50 refers to the negative decadic logarithm of the IC50, by convention in mol/L. In the case of `C[C@H]1[C@H](OC(=O)CCC(=O)O)O[C@@H]2O[C@@]3(C)CC[C@H]4[C@H](C)CC[C@@H]1[C@@]24OO3` [Artesunate], in the assay on EBOV [1] (Zaire ebolavirus, HeLa, read-out: IC50 (EBOV inhibitory activity)), the negative-log IC50 (pIC50) is 5.09.

For `C[C@H]1Cc2c([nH]c3cc(Cl)c(F)cc23)[C@@]2(N1)C(=O)Nc1ccc(Cl)cc12` [Cipargamin], the selectivity indexes with EBOV [1] is recorded as less than 5.

As usually defined, the EC50 is the concentration giving half of the maximal effect. In the case of `NC(=O)c1nc(F)c[nH]c1=O` [Favipiravir (T-705), Favipiravir], in the assay on EBOV [1], the “EBOV activity (in words)” value was “inactive; also recorded: no activity at the concentrations tested”. For the same compound, in the assay on EBOV [2], the EC50 is 10 to 63 µg/mL and the pIC50 was 4.17.

In the case of `CCCCN(CCCC)CC(O)c1cc(Cl)cc2c1-c1ccc(Cl)cc1/C2=C/c1ccc(Cl)cc1` (stereo not shown) [Lumefantrine], the “EBOV activity (in words)” value with EBOV [1] is “inactive”.

In the case of `Clc1ccc2c(N3CCN(CCCN4CCN(c5ccnc6cc(Cl)ccc56)CC4)CC3)ccnc2c1` [Piperaquine Phosphate 4H20], the “EBOV activity (in words)” value in the assay on EBOV [1] was “inactive”.

With `CCN(CC)Cc1cc(Nc2ccnc3cc(Cl)ccc23)ccc1O` [amodiaquine], in the assay with EBOV [3], the pIC50 was 5.59.

Usually pEC50 stands for the negative decadic logarithm of the EC50, by convention in mol/L. As for `CCN(CC)CCCC(C)Nc1ccnc2cc(Cl)ccc12` (stereo not shown) [chloroquine], the pEC50 with EBOV [4] is 5.40.

The record behind these values is article PMC6356859 (ACS Omega, 2019).
